From patent US20250049664A1, “SKIN EXTERNAL APPLICATION COMPOSITION FOR SKIN BARRIER STRENGTHENING OR SKIN MOISTURIZING CONTAINING DEHYDROABIETIC ACID” (AMOREPACIFIC CORPORATION, priority 2018, published 2025) come the findings set out here.

Holding throughout (format): cell-based, human
The target of one test is T1, PPARα (Mus musculus, UniProt P23204).
T1 construct: expressed in transfected cells; host or cells: HaCaT (human keratinocytes), transiently transfected
T1 sequence (P23204 1-468): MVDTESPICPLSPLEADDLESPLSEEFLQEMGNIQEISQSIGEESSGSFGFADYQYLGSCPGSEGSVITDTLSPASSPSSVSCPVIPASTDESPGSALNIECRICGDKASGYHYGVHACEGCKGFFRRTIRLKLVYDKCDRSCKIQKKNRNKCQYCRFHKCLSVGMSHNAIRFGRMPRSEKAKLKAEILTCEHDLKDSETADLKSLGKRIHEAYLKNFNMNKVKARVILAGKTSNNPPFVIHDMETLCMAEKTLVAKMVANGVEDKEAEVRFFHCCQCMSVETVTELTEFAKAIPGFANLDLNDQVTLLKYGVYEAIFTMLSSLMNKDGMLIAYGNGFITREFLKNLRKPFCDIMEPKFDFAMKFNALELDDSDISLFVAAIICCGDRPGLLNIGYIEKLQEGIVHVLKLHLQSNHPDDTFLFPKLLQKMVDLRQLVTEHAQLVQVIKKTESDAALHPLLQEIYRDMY
Nature of the test: PPARα activation, PPRE-luciferase reporter assay in transfected HaCaT cells. The note with it: 10 μM; for PPARα activation (%): 24 hours, luciferase activity relative to ethanol negative control (100). From the text:
HaCaT cells, which are human keratinocytes, were subcultured in DMEM containing 10% fetal bovine serum. A phenol red-free medium was used to avoid the effect of phenol red on estrogen. The following plasmids were used: a plasmid having the PPARα gene downstream of a universal promoter which is expressed in general culture conditions; a plasmid having a PPAR response element (PPRE) activated by binding with ligand-bound PPAR as a promoter and a firefly luciferase gene reporter downstream of the promoter; and a reference plasmid having a β-galactosidase gene bound to a universal promoter [Kliewer, S. A., Forman, B. M., Blumberg, B., Ong, […]., Evans, R. M., Differential expression and activation of a family of murine peroxisome proliferator-activated receptors, Proc. Natl. Acad. Sci. USA, 91 (1994) 7355-7359.]. The HaCaT cells were seeded onto a 24-well plate at a density of 5×10^4 cells/well, cultured for 24 hours, and then transiently transfected with the plasmid genes. After 24 hours of culturing, followed by washing with phosphate-buffered saline (PBS), the ells were treated with dehydroabietic acid of Chemical Formula 1 purchased from Ramidus AB or WY14643, which is a PPARα ligand, as a positive control group at 10 μM. WY14643 is reported as a PPARα ligand which induces keratinocyte differentiation and strengthens skin barrier. A negative control group was treated with ethanol. After 24 hours of culturing, followed by washing with PBS, the cells were harvested and luciferase activity was measured. […] The result for each treatment group was represented relative to that of the negative control group.
For orientation: A reporter such as luciferase makes a cellular process visible.

The subject of another test is filaggrin gene. As to the kind of experiment: Quantitative RT-PCR of filaggrin gene expression in HaCaT cells. The note with it: for Gene expression level (fold) Filaggrin: 24 hours, relative mRNA level vs ethanol negative control as 1. As to the method: (§1) HaCaT cells were cultured in Dulbecco's modified Eagle's medium (DMEM, GIBCO 1210-0038) containing 10% fetal bovine serum. 1×10^6 cells were placed in a […] flask and cultured for 24 hours. Then, after treating with DMEM not containing fetal bovine serum and culturing for 24 hours, the cells were treated with dehydroabietic acid in a medium not containing fetal bovine serum for 24 hours. Then, after harvesting the cells and washing with cooled phosphate-buffered saline (PBS), total RNA was extracted by adding 1 mL of TRIzolTM reagent (Life Technologies, Inc.). Then, quantitative reverse transcriptase PCR was conducted. The primer sequences of PPARα. TGase 1, filaggrin and HAS 2 used to conduct PCR are described in Table 2. After adding 4 μg of total RNA to 25 μL of a reverse transcription buffer containing 50 mM Tris-HCl (pH 8.3), 75 mM KCl, 3 mM MgCl^2, 0.1 M DTT, 10 mM dNTP and 40 units/μL RNase inhibitor, 0.5 μg/μL oligo (dT)16 primer and 200 units of SuperScript II (GIBCO BRL) were added and incubation was conducted at 42° C. for 1 hour. Then, after mixing 2.5 μL of the reverse transcription solution with a 50 µL of a PCR buffer containing AmpliTaq DNA polymerase (0.04U, Perkin Elmer, Shelton, CT), 50 mM Tris (pH 8.3), 0.25 mg/mL bovine serum albumin, 3 mM MgCl2, 0.25 mM dNTPs and a 1/50,000 diluted solution of SYBR Green I (Molecular Probes, Eugene, OR), 10 μM of primers were added and PCR was conducted for 30 cycles of 30 seconds at 94° C., 30 seconds at 53°° C. and 1 minute at 72° C. Relative mRNA level was analyzed by measuring the change in the fluorescence of SYBR Green I using the ICycler software. WY14643, which is a PPARα ligand, was used as a positive control group. The relative mRNA level was represented relative to an ethanol-treated negative control group as 1. […] WY14643 is a PPARα ligand reported to induce keratinocyte differentiation and strengthen skin barrier.

Test [1] has as its system transglutaminase 1 (TGase 1) gene. Nature of the test: Quantitative RT-PCR of TGase 1 gene expression in HaCaT cells. The note with it: for Gene expression level (fold) TGase1: 24 hours, relative mRNA level vs ethanol negative control as 1. As to the method: as §1
Test [2] has as its system hyaluronic acid synthase 2 (HAS 2) gene. Nature of the test: Quantitative RT-PCR of HAS 2 gene expression in HaCaT cells. The note with it: for Gene expression level (fold) HAS 2: 24 hours, relative mRNA level vs ethanol negative control as 1. As to the method: as §1
A further test has as its system PPARα gene. As to the kind of experiment: Quantitative RT-PCR of PPARα gene expression in HaCaT cells. The note with it: for Gene expression level (fold) PPARα: 24 hours, relative mRNA level vs ethanol negative control as 1. As to the method: as §1

Take `Cc1cccc(Nc2cc(Cl)nc(SCC(=O)O)n2)c1C` [WY14643, reference compound]: the “PPARα activation (%)” value on PPARα is given as 286.9%. The “Gene expression level (fold) Filaggrin” value in the test with filaggrin gene (1 μM) amounted to 1.86 fold; with filaggrin gene (10 μM), 3.12 fold. In addition, the “Gene expression level (fold) TGase1” value in test [1] (1 μM) worked out at 2.13 fold; in test [1] (10 μM), 4.98 fold. Besides, the “Gene expression level (fold) HAS 2” value in test [2] (1 μM) is reported as 9.64 fold; in test [2] (10 μM) it was 35.93 fold. The “Gene expression level (fold) PPARα” value in the test with PPARα gene (1 μM) turned out to be 2.54 fold; in the test on PPARα gene (10 μM), 5.96 fold.

On to `CC(C)c1ccc2c(c1)CC[C@H]1[C@](C)(C(=O)O)CCC[C@]21C` [Dehydroabietic acid, dehydroabietic acid], for which the “PPARα activation (%)” value at PPARα is recorded as 291.5%. Further, the “PPARα activation (luciferase activity), result in words” value at PPARα (compared with WY14643 positive control) is on record as “induced PPARα activation”. In addition, the results for the “Gene expression level (fold) Filaggrin” value with filaggrin gene (1 μM) and in the test with filaggrin gene (10 μM) were 2.31 fold and 3.34 fold, respectively. In addition, the “Expression of the filaggrin gene, result in words” value in the test on filaggrin gene (treatment for 24 hours) is given as “significantly increased”. Moreover, the figures for the “Gene expression level (fold) TGase1” value in test [1] (1 μM) and in test [1] (10 μM) were 2.58 fold and 5.94 fold, respectively. Further, the “Expression of the transglutaminase 1 (TGase 1) gene, result in words” value in test [1] (treatment for 24 hours) is on record as “significantly increased”. For the same molecule, the “Gene expression level (fold) HAS 2” value in test [2] (1 μM) is recorded as 12.4 fold; in test [2] (10 μM) it was 40.15 fold. The “Expression of the hyaluronic acid synthase 2 (HAS 2) gene, result in words” value in test [2] (treatment for 24 hours) is on record as “significantly increased”. The figures for the “Gene expression level (fold) PPARα” value in the test on PPARα gene (1 μM) and with PPARα gene (10 μM) were 2.65 fold and 6.16 fold, respectively. The “Expression of the PPARα gene, result in words” value with PPARα gene (treatment for 24 hours) is listed as “significantly increased”.
